From patent US7994209B2, “3-phenoxymethylpyrrolidine compounds” (Theravance, Inc., priority 2009, dated 2011) come the findings set out here.

In one test the target is hSERT (Homo sapiens, UniProt P31645). The test is described as follows: fluorescence-based serotonin reuptake inhibition assay (Tsuruda et al. 2010; data indicated by an asterisk). Type of test: cell-based. Details: expressed in transfected cells; host or cells: HEK-293. As to conditions: fluorescence-based assay (values with asterisk); for IC50: read-out: SERT pIC50 (converted).
Chain of hSERT (P31645 whole entry): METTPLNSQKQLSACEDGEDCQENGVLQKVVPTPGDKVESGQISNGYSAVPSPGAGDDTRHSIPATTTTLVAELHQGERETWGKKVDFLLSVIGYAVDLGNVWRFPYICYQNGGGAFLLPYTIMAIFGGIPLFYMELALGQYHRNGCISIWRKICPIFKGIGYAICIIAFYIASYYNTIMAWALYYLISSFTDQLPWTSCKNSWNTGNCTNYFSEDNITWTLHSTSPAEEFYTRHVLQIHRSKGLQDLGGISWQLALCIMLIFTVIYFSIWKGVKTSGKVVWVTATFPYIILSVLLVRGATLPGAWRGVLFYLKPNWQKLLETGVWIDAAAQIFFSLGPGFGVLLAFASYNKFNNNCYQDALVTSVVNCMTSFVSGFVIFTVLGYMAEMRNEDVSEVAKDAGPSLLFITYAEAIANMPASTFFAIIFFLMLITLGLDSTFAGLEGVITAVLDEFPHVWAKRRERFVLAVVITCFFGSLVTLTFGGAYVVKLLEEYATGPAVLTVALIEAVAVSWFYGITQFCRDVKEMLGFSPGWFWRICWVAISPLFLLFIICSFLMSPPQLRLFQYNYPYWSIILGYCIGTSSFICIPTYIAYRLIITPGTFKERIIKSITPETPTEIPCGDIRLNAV

For another test, the target named is hNET (Homo sapiens, UniProt P23975). The test is described as follows: fluorescence-based norepinephrine reuptake inhibition assay (Tsuruda et al. 2010; data indicated by an asterisk). Type of test: cell-based. Details: expressed in transfected cells; host or cells: HEK-293. As to conditions: fluorescence-based assay (values with asterisk).
Chain of hNET (P23975 whole entry): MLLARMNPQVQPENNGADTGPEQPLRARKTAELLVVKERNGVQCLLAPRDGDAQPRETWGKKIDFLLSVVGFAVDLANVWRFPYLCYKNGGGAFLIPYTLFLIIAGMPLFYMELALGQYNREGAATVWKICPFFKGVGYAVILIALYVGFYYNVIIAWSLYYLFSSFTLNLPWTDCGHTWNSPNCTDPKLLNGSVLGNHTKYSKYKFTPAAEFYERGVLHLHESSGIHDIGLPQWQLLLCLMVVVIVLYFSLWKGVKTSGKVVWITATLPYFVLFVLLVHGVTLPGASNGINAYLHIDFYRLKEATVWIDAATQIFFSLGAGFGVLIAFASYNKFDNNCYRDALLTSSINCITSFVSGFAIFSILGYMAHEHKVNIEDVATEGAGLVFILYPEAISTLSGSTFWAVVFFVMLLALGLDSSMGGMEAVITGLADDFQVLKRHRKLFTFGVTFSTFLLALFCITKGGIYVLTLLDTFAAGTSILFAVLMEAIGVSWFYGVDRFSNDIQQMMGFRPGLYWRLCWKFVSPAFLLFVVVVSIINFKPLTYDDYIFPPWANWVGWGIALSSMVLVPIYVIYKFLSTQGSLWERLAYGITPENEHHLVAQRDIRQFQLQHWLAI
[1] abbreviates: norepinephrine reuptake inhibition, read-out: NET pIC50 (converted).

Where two headings read alike, the source gives them in different places. Marks after values point to notes of the source that are not given here. Bounds are passed on as bounds.

Regarding `CC(C)[C@H](Oc1cc(F)cc(Cl)c1)[C@H]1CCNC1` [Example 6-59, (S)-3-[(S)-1-(3-Chloro-5-fluorophenoxy)-2-methylpropyl]pyrrolidine], the IC50 at hSERT is no more than 100 nM; on hNET (setting [1]) it was no more than 10 nM.

As for `Fc1c(Cl)ccc(O[C@@H](C2CC2)[C@H]2CCNC2)c1F` [Example 16-48, (S)-3-[(S)-(4-Chloro-2,3-difluorophenoxy)cyclopropylmethyl]pyrrolidine], the IC50 at hSERT and on hNET (setting [1]) was no more than 10 nM in each case.

Regarding `CC(C)C[C@@H](Oc1cc(F)cc(Cl)c1)[C@H]1CCNC1` [Example 10-83, (S)-3-[(R)-1-(3-Chloro-5-fluorophenoxy)-3-methylbutyl]pyrrolidine], the IC50 on hSERT is no more than 100 nM; at hNET (setting [1]), no more than 10 nM.

For `Cc1cc(O[C@H](C(C)C)[C@H]2CCNC2)ccc1Cl` [Example 6-71, (S)-3-[(R)-1-(4-Chloro-3-methylphenoxy)-2-methylpropyl]pyrrolidine], the IC50 on hSERT is no more than 10 nM; on hNET (setting [1]), no more than 100 nM.

`CCC[C@H](Oc1c(F)cc(Cl)cc1Cl)[C@H]1CCNC1` [Example 4-40, (S)-3-[(S)-1-(2,4-Dichloro-6-fluorophenoxy)butyl]pyrrolidine]: the IC50 on hSERT and at hNET (setting [1]) was no more than 10 nM each time.

On to `CC[C@H](Oc1ccc(C)c(F)c1F)[C@H]1CCNC1` [Example 2-51, (S)-3-[(S)-1-(2,3-Difluoro-4-methylphenoxy)propyl]pyrrolidine], for which the IC50 at hSERT and on hNET (setting [1]) was no more than 10 nM in each case.

Regarding `Clc1cc(Cl)cc(OC(C2CCCC2)C2CCNC2)c1` (stereo not shown) [Example 18-9, 3-[Cyclopentyl-(3,5-dichlorophenoxy)methyl]pyrrolidine], the IC50 on hSERT and on hNET (setting [1]) was no more than 10 nM each time.

As for `CCC[C@@H](Oc1ccc(Cl)c(Cl)c1)[C@@H]1CCNC1` [Example 4-14, (R)-3-[(R)-1-(3,4-Dichlorophenoxy)butyl]pyrrolidine], the IC50 was no more than 10 nM at hSERT and no more than 100 nM at hNET (setting [1]).

For the compound `CC(C)C[C@@H](Oc1cccc2ccccc12)[C@H]1CCNC1` [Example 14-9, (S)-3-[(R)-3-Methyl-1-(naphthalen-1-yloxy)butyl]pyrrolidine], the IC50 at hSERT and at hNET (setting [1]) was no more than 10 nM throughout.

Turning to `Cc1c(Cl)cccc1O[C@@H](C(C)C)[C@@H]1CCNC1` [Example 6-42, (R)-3-[(S)-1-(3-Chloro-2-methylphenoxy)-2-methylpropyl]pyrrolidine], the IC50 at hSERT is no more than 10 nM; on hNET (setting [1]), no more than 100 nM.

Regarding `CCC(CC)[C@H](Oc1cccc(Cl)c1Cl)[C@H]1CCNC1` [Example 12-1, (S)-3-[(S)-1-(2,3-Dichlorophenoxy)-2-ethylbutyl]pyrrolidine], the IC50 at hSERT and on hNET (setting [1]) was no more than 10 nM throughout.

For the compound `Cc1ccc(OC(C2CCCC2)C2CCNC2)c(Cl)c1` (stereo not shown) [Example 18-6, 3-[(2-Chloro-4-methylphenoxy)cyclopentylmethyl]pyrrolidine], the “SERT pIC50” value at hSERT is given as “≧8.0*”. In addition, on hNET (setting [1]), the IC50 was no more than 100 nM.

With `CC[C@@H](Oc1ccc(Cl)c(Cl)c1)[C@H]1CCNC1` [Example 2-8, (S)-3-[(R)-1-(3,4-Dichlorophenoxy)propyl]pyrrolidine], the IC50 on hSERT was no more than 10 nM; at hNET (setting [1]) it was no more than 100 nM.

Regarding `CC(C)[C@@H](Oc1c(F)cc(Cl)cc1F)[C@@H]1CCNC1` [Example 6-6, (R)-3-[(R)-1-(4-Chloro-2,6-difluorophenoxy)-2-methylpropyl]pyrrolidine], the IC50 at hSERT and on hNET (setting [1]) was no more than 100 nM each time.

Regarding `CC[C@@H](Oc1ccc(Cl)c(C)c1)[C@H]1CCNC1` [Example 2-14, (S)-3-[(R)-1-(4-Chloro-3-methylphenoxy)propyl]pyrrolidine], the IC50 is no more than 10 nM on hSERT and no more than 100 nM at hNET (setting [1]).

Turning to `CCC[C@@H](Oc1ccc(Cl)c(Cl)c1F)[C@H]1CCNC1` [Example 4-51, (S)-3-[(R)-1-(3,4-Dichloro-2-fluorophenoxy)butyl]pyrrolidine], the IC50 at hSERT and at hNET (setting [1]) was no more than 10 nM each time.

For the compound `Clc1ccc(OC(C2CCCC2)C2CCNC2)c(Cl)c1` (single isomer, unassigned) [Example 18-4, 3-[Cyclopentyl-(2,4-dichlorophenoxy)methyl]pyrrolidine], the results for the IC50 on hSERT and at hNET (setting [1]) were no more than 10 nM and no more than 100 nM, respectively.

In the case of `CC[C@@H](Oc1ccc(Cl)cc1Cl)[C@H]1CCNC1` [Example 2-34, (S)-3-[(R)-1-(2,4-Dichlorophenoxy)propyl]pyrrolidine], the IC50 is no more than 10 nM at hSERT and no more than 100 nM on hNET (NET pIC50, norepinephrine reuptake inhibition).

On to `CCC[C@H](Oc1ccc(Cl)c(F)c1Cl)[C@H]1CCNC1` [Example 4-39, (S)-3-[(S)-1-(2,4-Dichloro-3-fluorophenoxy)butyl]pyrrolidine], for which the IC50 at hSERT and on hNET (setting [1]) was no more than 10 nM each time.

`CCC[C@@H](Oc1ccc(Cl)c(C)c1)[C@H]1CCNC1` [Example 4-15, (S)-3-[(R)-1-(4-Chloro-3-methylphenoxy)butyl]pyrrolidine]: the IC50 was no more than 10 nM at hSERT and no more than 100 nM on hNET (setting [1]).

For `CCC[C@H](Oc1ccc(Cl)cc1OC)[C@H]1CCNC1` [Example 4-72, (S)-3-[(S)-1-(4-Chloro-2-methoxyphenoxy)butyl]pyrrolidine], the IC50 on hSERT and at hNET (setting [1]) was no more than 10 nM each time.

For the compound `FC(F)(F)c1c(Cl)cccc1OC(C1CCCC1)C1CCNC1` (single isomer, unassigned) [Example 18-2, 3-[(3-Chloro-2-trifluoromethylphenoxy)cyclopentylmethyl]pyrrolidine], the figures for the IC50 at hSERT and on hNET (setting [1]) were no more than 10 nM and no more than 100 nM, respectively.

Regarding `CC[C@H](Oc1c(F)cc(Cl)cc1Cl)[C@H]1CCNC1` [Example 2-35, (S)-3-[(S)-1-(2,4-Dichloro-6-fluorophenoxy)propyl]pyrrolidine], the IC50 at hSERT and on hNET (setting [1]) was no more than 10 nM throughout.

Consider `CCC[C@H](Oc1cccc(F)c1F)[C@H]1CCNC1` [Example 4-45, (S)-3-[(S)-1-(2,3-Difluorophenoxy)butyl]pyrrolidine], for which the IC50 at hSERT is no more than 100 nM; on hNET (setting [1]) it was no more than 10 nM.

Turning to `CC(C)[C@@H](Oc1ccc(Cl)cc1Cl)[C@@H]1CCNC1` [Example 6-23, (R)-3-[(R)-1-(2,4-Dichlorophenoxy)-2-methylpropyl]pyrrolidine], the IC50 on hSERT is no more than 10 nM; at hNET (setting [1]), no more than 100 nM.

With `CC(C)[C@@H](Oc1cccc(Cl)c1F)[C@H]1CCNC1` [Example 6-4, (S)-3-[(R)-1-(3-Chloro-2-fluorophenoxy)-2-methylpropyl]pyrrolidine], the IC50 at hSERT and at hNET (setting [1]) was no more than 10 nM each time.

On to `CC(C)C[C@@H](Oc1cccc(Cl)c1C(F)(F)F)[C@H]1CCNC1` [Example 10-34, (S)-3-[(R)-1-(3-Chloro-2-trifluoromethylphenoxy)-3-methylbutyl]pyrrolidine], for which the IC50 on hSERT is no more than 10 nM; at hNET (setting [1]), no more than 100 nM.

Turning to `CCC[C@@H](Oc1ccc(F)c(F)c1F)[C@H]1CCNC1` [Example 4-49, (S)-3-[(R)-1-(2,3,4-Trifluorophenoxy)butyl]pyrrolidine], the values for the IC50 at hSERT and at hNET (setting [1]) were no more than 10 nM and no more than 100 nM, respectively.

Take `CC[C@@H](Oc1cc(F)cc(Cl)c1)[C@H]1CCNC1` [Example 2-11, (S)-3-[(R)-1-(3-Chloro-5-fluorophenoxy)propyl]pyrrolidine]: the figures for the IC50 on hSERT and on hNET (setting [1]) were no more than 100 nM and no more than 10 nM, respectively.

For `COc1cc(Cl)cc(O[C@@H](C2CC2)[C@H]2CCNC2)c1` [Example 16-100, (S)-3-[(S)-(3-Chloro-5-methoxyphenoxy)cyclopropylmethyl]pyrrolidine], the IC50 on hSERT was no more than 100 nM; at hNET (setting [1]), no more than 10 nM.

As for `Clc1ccc(OC(C2CCCC2)C2CCNC2)c(Cl)c1` (single isomer, unassigned) [Example 18-5, 3-[Cyclopentyl-(2,4-dichlorophenoxy)methyl]pyrrolidine], the “SERT pIC50” value at hSERT is on record as “≧8.0*”. For the same compound, the IC50 on hNET (setting [1]) is no more than 10 nM.

On to `CC(C)[C@H](Oc1cccc(F)c1Cl)[C@@H]1CCNC1` [Example 6-20, (R)-3-[(S)-1-(2-Chloro-3-fluorophenoxy)-2-methylpropyl]pyrrolidine], for which the IC50 on hSERT and on hNET (setting [1]) was no more than 100 nM throughout.

Turning to `CC[C@@H](Oc1cccc(Cl)c1C(F)(F)F)[C@H]1CCNC1` [Example 2-74, (S)-3-[(R)-1-(3-Chloro-2-trifluoromethylphenoxy)propyl]pyrrolidine], the IC50 on hSERT is no more than 10 nM; on hNET (setting [1]), no more than 100 nM.

On to `CC(C)[C@@H](Oc1cc(F)cc(Cl)c1)[C@H]1CCNC1` [Example 6-60, (S)-3-[(R)-1-(3-Chloro-5-fluorophenoxy)-2-methylpropyl]pyrrolidine], for which the IC50 on hSERT and at hNET (setting [1]) was no more than 10 nM in each case.

As for `CC(C)[C@@H](Oc1ccc(Cl)c(Cl)c1)[C@H]1CCNC1` [Example 6-63, (S)-3-[(R)-1-(3,4-Dichlorophenoxy)-2-methylpropyl]pyrrolidine], the IC50 on hSERT is no more than 10 nM; at hNET (setting [1]), no more than 100 nM.

`FC(F)(F)c1c(Cl)cccc1OC(C1CCCC1)C1CCNC1` (single isomer, unassigned) [Example 18-3, 3-[(3-Chloro-2-trifluoromethylphenoxy)cyclopentylmethyl]pyrrolidine]: the results for the IC50 at hSERT and on hNET (setting [1]) were no more than 100 nM and no more than 10 nM, respectively.

In the case of `Cc1cc(Cl)cc(Cl)c1O[C@@H](C(C)C)[C@H]1CCNC1` [Example 6-33, (S)-3-[(S)-1-(2,4-Dichloro-6-methylphenoxy)-2-methylpropyl]pyrrolidine], the IC50 on hSERT and at hNET (setting [1]) was no more than 10 nM each time.

On to `Cc1c(Cl)cccc1O[C@H](C(C)C)[C@@H]1CCNC1` [Example 6-41, (R)-3-[(R)-1-(3-Chloro-2-methylphenoxy)-2-methylpropyl]pyrrolidine], for which the figures for the IC50 on hSERT and at hNET (setting [1]) were no more than 10 nM and no more than 100 nM, respectively.
